Here are results for 18 molecules from ChEMBL document CHEMBL3351292, “Structure-Based Design and Synthesis of Potent Cyclic Peptides Inhibiting the YAP-TEAD Protein-Protein Interaction” (ACS Med Chem Lett, 2014).

SMILES strings stand for the structures. Where a SMILES comes first, the peptide text is derived from it. Bridges are numbered along the chain shown (N, C = ends). [ ]: non-standard residue; d: D form. hCys = N[C@@H](CCS)C(=O)O Bounds are passed on as bounds.

The target in the first experiment is Transcriptional coactivator YAP1/Transcriptional enhancer factor TEF-1 (Homo sapiens) (UniProt P46937+P28347). Description: Inhibition of YAP/ GST-TEAD1 (unknown origin) interaction at 50 uM by surface plasmon resonance assay. The class given is protein assay. (In general: SPR reads the build-up and loss of mass on a sensor chip optically.)
Chain of Transcriptional coactivator YAP1/Transcriptional enhancer factor TEF-1 (Homo sapiens) (P28347 whole entry, looked up): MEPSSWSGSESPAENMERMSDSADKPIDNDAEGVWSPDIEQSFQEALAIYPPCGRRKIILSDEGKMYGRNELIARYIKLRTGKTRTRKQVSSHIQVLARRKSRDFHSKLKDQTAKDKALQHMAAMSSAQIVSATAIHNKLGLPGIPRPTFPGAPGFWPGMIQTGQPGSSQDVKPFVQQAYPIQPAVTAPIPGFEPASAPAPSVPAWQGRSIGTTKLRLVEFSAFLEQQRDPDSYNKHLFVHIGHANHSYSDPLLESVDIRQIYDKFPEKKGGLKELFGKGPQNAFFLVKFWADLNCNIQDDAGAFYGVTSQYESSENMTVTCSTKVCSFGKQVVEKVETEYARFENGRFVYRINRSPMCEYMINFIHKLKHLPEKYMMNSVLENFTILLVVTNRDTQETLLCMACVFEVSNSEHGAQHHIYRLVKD
Chain of Transcriptional coactivator YAP1/Transcriptional enhancer factor TEF-1 (Homo sapiens) (P46937 whole entry, looked up): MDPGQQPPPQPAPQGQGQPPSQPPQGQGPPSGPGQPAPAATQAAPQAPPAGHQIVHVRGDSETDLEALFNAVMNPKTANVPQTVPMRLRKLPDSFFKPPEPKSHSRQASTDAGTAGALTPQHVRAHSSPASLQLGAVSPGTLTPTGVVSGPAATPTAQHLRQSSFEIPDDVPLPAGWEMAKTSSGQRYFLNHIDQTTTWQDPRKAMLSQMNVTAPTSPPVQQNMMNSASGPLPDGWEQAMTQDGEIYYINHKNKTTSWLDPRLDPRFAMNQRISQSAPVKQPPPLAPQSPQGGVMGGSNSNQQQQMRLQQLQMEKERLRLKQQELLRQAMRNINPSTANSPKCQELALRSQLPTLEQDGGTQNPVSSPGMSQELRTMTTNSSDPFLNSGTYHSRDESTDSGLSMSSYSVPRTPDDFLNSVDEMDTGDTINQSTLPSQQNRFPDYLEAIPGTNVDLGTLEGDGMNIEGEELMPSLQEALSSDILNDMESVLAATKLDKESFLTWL
As a reminder, the inhibition is the share of the control response that was lost under treatment. Regarding `CSCC[C@H](NC(=O)[C@@H]1CCCN1C(=O)[C@@H](NC(=O)[C@@H](NC(=O)[C@H](CCC(N)=O)NC(=O)[C@@H]1CCCN1C(C)=O)[C@@H](C)O)C(C)C)C(=O)N[C@@H](CCCNC(=N)N)C(=O)N[C@@H](CC(C)C)C(=O)N[C@@H](CCCNC(=N)N)C(=O)N[C@@H](CCCCN)C(=O)N[C@@H](CC(C)C)C(=O)N1CCC[C@H]1C(=O)N[C@@H](C)C(=O)N[C@@H](CO)C(=O)N[C@@H](Cc1ccccc1)C(=O)N[C@@H](Cc1ccccc1)C(=O)N[C@@H](CCCCN)C(=O)N1CCC[C@H]1C(=O)N1CCC[C@H]1C(=O)N[C@@H](CCC(=O)O)C(N)=O` (Ac-PQTVPMRLRKLPASFFKPPE-NH2), the inhibition came to 83%.

Turning to `CSCC[C@H](NC(=O)[C@@H]1CCCN1C(=O)[C@@H](NC(=O)[C@@H](NC(=O)[C@H](CCC(N)=O)NC(=O)[C@@H]1CCCN1C(C)=O)[C@@H](C)O)C(C)C)C(=O)N[C@@H](CCCNC(=N)N)C(=O)N[C@@H](CC(C)C)C(=O)N[C@@H](CCCNC(=N)N)C(=O)N[C@@H](CCCCN)C(=O)N[C@@H](C)C(=O)N1CCC[C@H]1C(=O)N[C@@H](CC(=O)O)C(=O)N[C@@H](CO)C(=O)N[C@@H](Cc1ccccc1)C(=O)N[C@@H](Cc1ccccc1)C(=O)N[C@@H](CCCCN)C(=O)N1CCC[C@H]1C(=O)N1CCC[C@H]1C(=O)N[C@@H](CCC(=O)O)C(N)=O` (Ac-PQTVPMRLRKAPDSFFKPPE-NH2), the inhibition amounted to 0%.

Turning to `CSCC[C@H](NC(=O)[C@@H]1CCCN1C(=O)[C@@H](NC(=O)[C@@H](NC(C)=O)[C@@H](C)O)C(C)C)C(=O)N[C@@H](CCCNC(=N)N)C(=O)N[C@@H](CC(C)C)C(=O)N[C@@H](CCCNC(=N)N)C(=O)N[C@@H](CCCCN)C(=O)N[C@@H](CC(C)C)C(=O)N1CCC[C@H]1C(=O)N[C@@H](CC(=O)O)C(=O)N[C@@H](CO)C(=O)N[C@@H](Cc1ccccc1)C(=O)N[C@@H](Cc1ccccc1)C(=O)N[C@@H](CCCCN)C(=O)N1CCC[C@H]1C(=O)N1CCC[C@H]1C(=O)N[C@@H](CCC(=O)O)C(N)=O`, the inhibition came out at 60%.

Turning to `CSCC[C@H](NC(=O)[C@@H]1CCCN1C(=O)[C@@H](NC(=O)[C@@H](NC(=O)[C@H](CCC(N)=O)NC(=O)[C@@H]1CCCN1C(C)=O)[C@@H](C)O)C(C)C)C(=O)N[C@@H](CCCNC(=N)N)C(=O)N[C@@H](CC(C)C)C(=O)N[C@@H](CCCNC(=N)N)C(=O)N[C@@H](CCCCN)C(=O)N[C@@H](CC(C)C)C(=O)N1CCC[C@H]1C(=O)N[C@@H](CC(=O)O)C(=O)N[C@@H](CO)C(=O)N[C@@H](Cc1ccccc1)C(=O)N[C@@H](Cc1ccccc1)C(=O)N[C@@H](CCCCN)C(N)=O` (Ac-PQTVPMRLRKLPDSFFK-NH2), the inhibition is 14%.

A further experiment deals with Transcriptional coactivator YAP1/Transcriptional enhancer factor TEF-1 (Homo sapiens, UniProt P28347). Description: Inhibition of YAP/ GST-TEAD1 (unknown origin) interaction by surface plasmon resonance assay. Format: protein assay.
Chain of Transcriptional coactivator YAP1/Transcriptional enhancer factor TEF-1 (P46937 whole entry): as the sequence (P46937 whole entry, looked up) above
Chain of Transcriptional coactivator YAP1/Transcriptional enhancer factor TEF-1 (P28347 whole entry): as the sequence (P28347 whole entry, looked up) above
A word on the IC50: it is the concentration at which inhibition is half-maximal. In the case of `CSCC[C@H](NC(=O)[C@@H]1CCCN1C(=O)[C@@H](NC(C)=O)C(C)C)C(=O)N[C@H]1CCSSC[C@@H](C(=O)N[C@@H](CCCCN)C(=O)N2CCC[C@H]2C(=O)N2CCC[C@H]2C(=O)N[C@@H](CCC(=O)O)C(N)=O)NC(=O)[C@H](Cc2ccccc2)NC(=O)[C@H](CO)NC(=O)[C@H](CC(=O)O)NC(=O)[C@@H]2CCCN2C(=O)[C@H](CC(C)C)NC(=O)[C@H](CCCCN)NC(=O)[C@H](CCCNC(=N)N)NC(=O)[C@H](CC(C)C)NC1=O`, the concentration for half-maximal inhibition (IC50) is 6900 nM.

On to `CSCC[C@H](NC(=O)[C@@H]1CCCN1C(=O)[C@@H](NC(C)=O)C(C)C)C(=O)N[C@H]1CCSSC[C@@H](C(=O)N[C@@H](CCCCN)C(=O)N2CCC[C@H]2C(=O)N2CCC[C@H]2C(=O)N[C@@H](CCC(=O)O)C(N)=O)NC(=O)[C@H](Cc2ccccc2)NC(=O)[C@H](CO)NC(=O)[C@H](C)NC(=O)[C@@H]2CCCN2C(=O)[C@H](CCCC(C)C)NC(=O)[C@H](CCCCN)NC(=O)[C@H](CCCNC(=N)N)NC(=O)[C@H](CC(C)C)NC1=O`, for which the IC50 was determined as 310 nM.

On to `CCCC[C@@H]1NC(=O)[C@H](CCCCN)NC(=O)[C@H](CCCNC(=N)N)NC(=O)[C@H](CC(C)C)NC(=O)[C@@H](NC(=O)[C@H](CCSC)NC(=O)[C@@H]2CCCN2C(=O)[C@@H](NC(C)=O)C(C)C)CCSSC[C@@H](C(=O)N[C@@H](CCCCN)C(=O)N2CCC[C@H]2C(=O)N2CCC[C@H]2C(=O)N[C@@H](CCC(=O)O)C(N)=O)NC(=O)[C@H](Cc2ccc(F)cc2)NC(=O)[C@H](CO)NC(=O)[C@H](C)NC(=O)[C@@H]2CCCN2C1=O`, for which the IC50 was 75 nM.

For `CSCC[C@H](NC(=O)[C@@H]1CCCN1C(=O)[C@@H](NC(C)=O)C(C)C)C(=O)N[C@H]1CCSSC[C@@H](C(=O)N[C@@H](CCCCN)C(=O)N2CCC[C@H]2C(=O)N2CCC[C@H]2C(=O)N[C@@H](CCC(=O)O)C(N)=O)NC(=O)[C@H](Cc2ccccc2)NC(=O)[C@H](CO)NC(=O)[C@H](C)NC(=O)[C@@H]2CCCN2C(=O)[C@H](CCC(C)C)NC(=O)[C@H](CCCCN)NC(=O)[C@H](CCCNC(=N)N)NC(=O)[C@H](CC(C)C)NC1=O`, the IC50 came to 620 nM.

Take `CCCC[C@@H]1NC(=O)[C@H](CCCCN)NC(=O)[C@H](CCCNC(=N)N)NC(=O)[C@H](CC(C)C)NC(=O)[C@@H](NC(=O)[C@H](Cc2ccccc2)NC(=O)[C@@H]2CCCN2C(=O)[C@@H](NC(C)=O)C(C)C)CCSSC[C@@H](C(=O)N[C@@H](CCCCN)C(=O)N2CCC[C@H]2C(=O)N2CCC[C@H]2C(=O)N[C@@H](CCC(=O)O)C(N)=O)NC(=O)[C@H](Cc2ccccc2)NC(=O)[C@H](CO)NC(=O)[C@H](C)NC(=O)[C@@H]2CCCN2C1=O`: the IC50 is 350 nM.

In the case of `CCCC[C@H](NC(=O)[C@@H]1CCCN1C(=O)[C@@H](NC(C)=O)C(C)C)C(=O)N[C@H]1CCSSC[C@@H](C(=O)N[C@@H](CCCCN)C(=O)N2CCC[C@H]2C(=O)N2CCC[C@H]2C(=O)N[C@@H](CCC(=O)O)C(N)=O)NC(=O)[C@H](Cc2ccccc2)NC(=O)[C@H](CO)NC(=O)[C@H](C)NC(=O)[C@@H]2CCCN2C(=O)[C@H](CCCC)NC(=O)[C@H](CCCCN)NC(=O)[C@H](CCCNC(=N)N)NC(=O)[C@H](CC(C)C)NC1=O`, the concentration for half-maximal inhibition (IC50) stood at 340 nM.

Turning to `CSCC[C@H](NC(=O)[C@@H]1CCCN1C(=O)[C@@H](NC(C)=O)C(C)C)C(=O)N[C@H]1CCSSC[C@@H](C(=O)N[C@@H](CCCCN)C(=O)N2CCC[C@H]2C(=O)N2CCC[C@H]2C(=O)N[C@@H](CCC(=O)O)C(N)=O)NC(=O)[C@H](Cc2ccccc2)NC(=O)[C@H](CO)NC(=O)[C@H](C)NC(=O)[C@@H]2CCCN2C(=O)[C@H](CC(C)C)NC(=O)[C@H](CCCCN)NC(=O)[C@H](CCCNC(=N)N)NC(=O)[C@H](CC(C)C)NC1=O`, the concentration for half-maximal inhibition (IC50) is 1500 nM.

Take `CSCC[C@H](NC(=O)[C@@H]1CCCN1C(=O)[C@@H](NC(C)=O)C(C)C)C(=O)N[C@H]1CCSSCC[C@@H](C(=O)N[C@@H](CCCCN)C(=O)N2CCC[C@H]2C(=O)N2CCC[C@H]2C(=O)N[C@@H](CCC(=O)O)C(N)=O)NC(=O)[C@H](Cc2ccccc2)NC(=O)[C@H](CO)NC(=O)[C@H](CC(=O)O)NC(=O)[C@@H]2CCCN2C(=O)[C@H](CC(C)C)NC(=O)[C@H](CCCCN)NC(=O)[C@H](CCCNC(=N)N)NC(=O)[C@H](CC(C)C)NC1=O` (Ac-VPM[hCys]LRKLPDSF[hCys]KPPE-NH2; disulfide 4-13): the IC50 was more than 100000 nM.

Consider `CCCCCC[C@@H]1NC(=O)[C@H](CCCCN)NC(=O)[C@H](CCCNC(=N)N)NC(=O)[C@H](CC(C)C)NC(=O)[C@@H](NC(=O)[C@H](CCSC)NC(=O)[C@@H]2CCCN2C(=O)[C@@H](NC(C)=O)C(C)C)CCSSC[C@@H](C(=O)N[C@@H](CCCCN)C(=O)N2CCC[C@H]2C(=O)N2CCC[C@H]2C(=O)N[C@@H](CCC(=O)O)C(N)=O)NC(=O)[C@H](Cc2ccccc2)NC(=O)[C@H](CO)NC(=O)[C@H](C)NC(=O)[C@@H]2CCCN2C1=O`, for which the half-inhibitory concentration (IC50) worked out at 370 nM.

Turning to `CCCCC[C@H](NC(=O)[C@@H]1CCCN1C(=O)[C@@H](NC(C)=O)C(C)C)C(=O)N[C@H]1CCSSC[C@@H](C(=O)N[C@@H](CCCCN)C(=O)N2CCC[C@H]2C(=O)N2CCC[C@H]2C(=O)N[C@@H](CCC(=O)O)C(N)=O)NC(=O)[C@H](Cc2ccccc2)NC(=O)[C@H](CO)NC(=O)[C@H](C)NC(=O)[C@@H]2CCCN2C(=O)[C@H](CCCC)NC(=O)[C@H](CCCCN)NC(=O)[C@H](CCCNC(=N)N)NC(=O)[C@H](CC(C)C)NC1=O`, the IC50 is 41 nM.

As for `CSCC[C@H](NC(=O)[C@@H]1CCCN1C(=O)[C@@H](NC(=O)[C@@H](NC(=O)[C@H](CCC(N)=O)NC(=O)[C@@H]1CCCN1C(C)=O)[C@@H](C)O)C(C)C)C(=O)N[C@@H](CCCNC(=N)N)C(=O)N[C@@H](CC(C)C)C(=O)N[C@@H](CCCNC(=N)N)C(=O)N[C@@H](CCCCN)C(=O)N[C@@H](CC(C)C)C(=O)N1CCC[C@H]1C(=O)N[C@@H](C)C(=O)N[C@@H](CO)C(=O)N[C@@H](Cc1ccccc1)C(=O)N[C@@H](Cc1ccccc1)C(=O)N[C@@H](CCCCN)C(=O)N1CCC[C@H]1C(=O)N1CCC[C@H]1C(=O)N[C@@H](CCC(=O)O)C(N)=O` (Ac-PQTVPMRLRKLPASFFKPPE-NH2), the IC50 stood at 25000 nM.

Turning to `CCCC[C@@H]1NC(=O)[C@H](CCCCN)NC(=O)[C@H](CCCNC(=N)N)NC(=O)[C@H](CC(C)C)NC(=O)[C@@H](NC(=O)[C@H](Cc2ccc(Cl)cc2)NC(=O)[C@@H]2CCCN2C(=O)[C@@H](NC(C)=O)C(C)C)CCSSC[C@@H](C(=O)N[C@@H](CCCCN)C(=O)N2CCC[C@H]2C(=O)N2CCC[C@H]2C(=O)N[C@@H](CCC(=O)O)C(N)=O)NC(=O)[C@H](Cc2ccccc2)NC(=O)[C@H](CO)NC(=O)[C@H](C)NC(=O)[C@@H]2CCCN2C1=O`, the IC50 is 530 nM.

Take `CCCC[C@@H]1NC(=O)[C@H](CCCCN)NC(=O)[C@H](CCCNC(=N)N)NC(=O)[C@H](CC(C)C)NC(=O)[C@@H](NC(=O)[C@H](Cc2ccccc2Cl)NC(=O)[C@@H]2CCCN2C(=O)[C@@H](NC(C)=O)C(C)C)CCSSC[C@@H](C(=O)N[C@@H](CCCCN)C(=O)N2CCC[C@H]2C(=O)N2CCC[C@H]2C(=O)N[C@@H](CCC(=O)O)C(N)=O)NC(=O)[C@H](Cc2ccccc2)NC(=O)[C@H](CO)NC(=O)[C@H](C)NC(=O)[C@@H]2CCCN2C1=O`: the IC50 amounted to 380 nM.

For the molecule `CSCC[C@H](NC(=O)[C@@H]1CCCN1C(=O)[C@@H](NC(C)=O)C(C)C)C(=O)N[C@H]1CSSC[C@@H](C(=O)N[C@@H](CCCCN)C(=O)N2CCC[C@H]2C(=O)N2CCC[C@H]2C(=O)N[C@@H](CCC(=O)O)C(N)=O)NC(=O)[C@H](Cc2ccccc2)NC(=O)[C@H](CO)NC(=O)[C@H](CC(=O)O)NC(=O)[C@@H]2CCCN2C(=O)[C@H](CC(C)C)NC(=O)[C@H](CCCCN)NC(=O)[C@H](CCCNC(=N)N)NC(=O)[C@H](CC(C)C)NC1=O` (Ac-VPMCLRKLPDSFCKPPE-NH2; disulfide 4-13), the IC50 is more than 100000 nM.

With `CSCC[C@H](NC(=O)[C@@H]1CCCN1C(=O)[C@@H](NC(C)=O)C(C)C)C(=O)N[C@H]1CSSCC[C@@H](C(=O)N[C@@H](CCCCN)C(=O)N2CCC[C@H]2C(=O)N2CCC[C@H]2C(=O)N[C@@H](CCC(=O)O)C(N)=O)NC(=O)[C@H](Cc2ccccc2)NC(=O)[C@H](CO)NC(=O)[C@H](CC(=O)O)NC(=O)[C@@H]2CCCN2C(=O)[C@H](CC(C)C)NC(=O)[C@H](CCCCN)NC(=O)[C@H](CCCNC(=N)N)NC(=O)[C@H](CC(C)C)NC1=O` (Ac-VPMCLRKLPDSF[hCys]KPPE-NH2; disulfide 4-13), the 50% inhibitory concentration (IC50) was found to be 85000 nM.
